Test results as given in article PMC6907063, “The Herb-Drug Pharmacokinetic Interaction of Fluoxetine and Its Metabolite Norfluoxetine with a Traditional Chinese Medicine in Rats by LC-MS/MS” (Evidence-based Complementary and Alternative Medicine : eCAM, 2019).

What was measured:
[1] = continuous administration of FLU for 2 weeks; cited from earlier work
[2] = in vivo; details: Sprague-Dawley, rat, po, 1.8 mg/kg
[3] = Stability of the analytes in QC samples (LC-MS/MS method validation); assay type: physicochemical, rat; details: n = 5
Method: Quality control (QC) samples were prepared in the same way as mentioned above. […] All stability studies were evaluated at low, medium, and high QC levels with five determinations for each test. The relative standard deviations (RSDs) were used to evaluate the stability of the analytes. The RSD was expected to be within ±15.0%.

[4] = rat, in vivo, po, 1.8 mg/kg
[5] = Pharmacokinetics of fluoxetine and its metabolite norfluoxetine in rat plasma after oral fluoxetine with or without CSGS for 14 d (LC-MS/MS)

## COc1ccc2c(c1)[C@]13CCCC[C@@H]1[C@H](C2)N(C)CC3 [dextromethorphan]
[1]
  increase of AUC: 27 times

## CNCCC(Oc1ccc(C(F)(F)F)cc1)c1ccccc1 (stereo not drawn) [fluoxetine]
[2]
  Tmax: 0.75 h
[2]; C max of fluoxetine
  Cmax: 2.19 ng/mL
[2]; CLz/F of fluoxetine
  CL/F: 2490 mL/min/kg
[2]; Cmax of fluoxetine
  Cmax: 2.19 ng/mL
[2]; MRT (0–t) of fluoxetine
  MRT last: 7.67 ± 1.02 h
[2]; t1/2z of fluoxetine
  half-life: 8.95 ± 7.5 h
[3]; QC concentration 1 ng/ml
  Measured C, at room temperature for 4 h: 1.010 ± 0.028 ng/mL
  Measured C, freeze-thaw three cycles: 0.997 ± 0.012 ng/mL
  Measured C, −20°C for 4 weeks: 0.987 ± 0.018 ng/mL
[3]; QC concentration 4 ng/ml
  Measured C, at room temperature for 4 h: 3.965 ± 0.210 ng/mL
  Measured C, freeze-thaw three cycles: 3.991 ± 0.212 ng/mL
  Measured C, −20°C for 4 weeks: 4.012 ± 0.231 ng/mL
[3]; QC concentration 16 ng/ml
  Measured C, at room temperature for 4 h: 15.832 ± 0.536 ng/mL
  Measured C, freeze-thaw three cycles: 15.872 ± 0.845 ng/mL
  Measured C, −20°C for 4 weeks: 15.872 ± 0.654 ng/mL
[4]
  AUC (0–∞) of fluoxetine: 12.20 ± 2.67 ug/L∗h
[5]; FLU group (fluoxetine 1.8 mg/kg·d for 14 d)
  AUCs (0–∞) of FLU: 12.20 ± 2.67 μg/L∗h
[5]; multiple dose group A (CSGS […]·d + fluoxetine 1.8 mg/kg·d)
  AUCs (0–∞) of FLU: 11.20 ± 3.86 μg/L∗h
[5]; multiple dose group B (CSGS 11.8 g/kg·d + fluoxetine 1.8 mg/kg·d)
  AUCs (0–∞) of FLU: 14.54 ± 3.22 μg/L∗h
[5]; multiple dose group C (CSGS 23.6 g/kg·d + fluoxetine 1.8 mg/kg·d)
  AUCs (0–∞) of FLU: 22.01 ± 4.49 μg/L∗h

## CC[C@H](C)C(=O)O[C@H]1C[C@@H](C)C=C2C=C[C@H](C)[C@H](CC[C@@H]3C[C@@H](O)CC(=O)O3)[C@H]21 [lovastatin]
[1]
  effect on AUC: did not affect

## Cc1ncc2n1-c1ccc(Cl)cc1C(c1ccccc1F)=NC2 [midazolam]
[1]
  effect on AUC: did not affect

## NCCC(Oc1ccc(C(F)(F)F)cc1)c1ccccc1 (stereo not drawn) [norfluoxetine]
[3]; QC concentration 2 ng/ml
  Measured C, at room temperature for 4 h: 1.943 ± 0.054 ng/mL
  Measured C, freeze-thaw three cycles: 1.879 ± 0.045 ng/mL
  Measured C, −20°C for 4 weeks: 1.873 ± 0.044 ng/mL
[3]; QC concentration 4 ng/ml
  Measured C, at room temperature for 4 h: 3.934 ± 0.186 ng/mL
  Measured C, freeze-thaw three cycles: 4.012 ± 0.231 ng/mL
  Measured C, −20°C for 4 weeks: 3.891 ± 0.156 ng/mL
[3]; QC concentration 8 ng/ml
  Measured C, at room temperature for 4 h: 7.897 ± 0.234 ng/mL
  Measured C, freeze-thaw three cycles: 7.987 ± 0.341 ng/mL
  Measured C, −20°C for 4 weeks: 7.871 ± 0.246 ng/mL

## COc1ccc2[nH]c([S+]([O-])Cc3ncc(C)c(OC)c3C)nc2c1 (stereo not drawn) [omeprazole]
[1]
  increase of AUC: 7.1 times
